The target of one experiment is T1, SIK1 (Homo sapiens, UniProt P57059).
T1 construct: purchased Carna Biosciences 02-131
Description: ADP-Glo kinase assay, SIK1. In kind it is biochemical. The conditions noted are these: ADP-Glo SIK kinase assay. The procedure, abridged: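 Wells with 1% DMSO or 10 μM staurosporine (final) define the control window. The kinase reaction with substrate and ATP runs 120 min at RT, followed by ADP-Glo detection: ATP depletion (40 min) and ADP-derived luminescence (30 min).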

Experiment [1] deals with LPS-induced TNFα in monocytes. Description: Monocytes assay: LPS-triggered TNFα (ELISA). It is filed as cell-based, human. The conditions noted are these: Homo sapiens, Monocyte, LPS 200 ng/mL, supernatant after 4 h. The procedure: (§1) SIK inhibition inhibits TNFα and increases IL-10 release in LPS triggered monocyte-derived macrophages (MdM) and dendritic cells (MdDCs) (Clark et al. 2012; Sundberg et al. 2014; Ozanne et al. 2015). This assay evaluates illustrative compounds of the invention for their inhibition of LPS-induced TNFα and LPS triggered IL-10 secretion in monocytes.
(§2) PBMCs are isolated from human blood samples (buffycoats). The buffy coat is aseptically transferred into a 50 mL Falcon tube, and diluted 1/2 in PBS. Falcon tubes are filled with 20 mL Lymphoprep™, on top of which 25 mL of the buffy coat is carefully added, tubes are centrifuged for 35 min at 400 g in temperature controlled centrifuge, without brake, at 25° C. PBMCs are aspirated from the white interface layer between sample and Lymphoprep™. PBMCs are washed five times in PBS. Cells are resuspended in RPMI 1640 complete medium supplemented with 10% FBS, 1% P/S, and cell density is determined using a hematologic analyzer (Sysmex XS-500i).
(§3) PBMCs are centrifuged at 300×g for 10 min and resuspended at a density of 1.0*10^7 cells/80 μL Miltenyi buffer (PBS, pH 7.4, 1% FBS, 2 mM EDTA).
(§4) Starting from this point of the protocol all steps are performed on ice. 20 μL of CD14+ micro-beads are added per 1.0*10^7 cells, the tube is mixed and incubated for 15 min in the fridge at 4° C. Cell suspension volume is adjusted to total volume of 100 mL using Miltenyi buffer, mixed gently and subsequently centrifuged for 10 min at 300×g. Supernantant is discarded and cell pellet is resuspended in 12 mL of Miltenyi buffer.
(§5) Four LS columns are placed in the MACS Separator (magnet) from Miltenyi Biotec, and are prewet by rinsing with 3 mL of MACS buffer per column. Three mL of cell suspension is added onto the column (max 1*10^8 of labelled cells/column), and columns are subsequently washed 3 times with 3 mL of Miltenyi buffer.
(§6) The columns are removed from the magnets, and 5 mL of Miltenyi buffer are added to the column to flush out the CD14+ fraction by pushing the plunger into the column. The flushed fractions are collected in a fresh 50 mL Falcon and volume is adjusted to 30 mL using Miltenyi buffer, cells are centrifuged for 10 min at 300×g. The obtained cell pellet is resuspended in 10 mL RPMI w/o FBS, and cell density is determined using a hematologic analyser (Sysmex XS-500i). 100 000 cells are seeded in 80 μL per well of a 96-well plate in RPMI 1640 medium supplemented with 10% FBS, 1% P/S.
(§7) A compound dilution plate is made in 100% DMSO by 3-fold dilution of 10 mM stock solution. An intermediate dilution plate (10× final concentration) is made by diluting the compound dilution plate 50-fold in RPMI medium.
(§8) 10 μL of the 10× final concentration compound is added to the cells and incubated for 1 h at 37° C. before addition of trigger. No trigger conditions/trigger conditions are spiked with equal final DMSO concentrations of 0.2% DMSO. 10 μL of 10×LPS (final conc. 200 ng/mL) solution are added to all wells except for the ‘no trigger wells’ where 10 μL medium is added. Supernatant is collected after 4 h of LPS triggering.
A Lumitrac 600 Greiner 384-well plate is coated with 40 μL of capture antibody (BD Pharmingen, Cat #551220) reaching a final concentration of 1 μg/mL in 1×PBS and stored overnight at 4° C.
The plate is then washed once with PBST (PBS+0.05% Tween20) and once with PBS followed by the addition of 100 μL of blocking buffer (1% Bovine Serum Albumin (BSA)−5% Sucrose) and plates are sealed and incubated for at least 4 h at RT. After washing the plate once with PBST and once with PBS, […]. Plates are washed twice with PBST, and once with PBS, after which 35 μL of the detection antibody is added (final concentration 0.25 μg/mL diluted in dilution buffer) and plates are incubated for at least 2 h at RT. […]
In general terms: ELISA stands for enzyme-linked immunosorbent assay.

The next experiment deals with T2, SIK3 (Homo sapiens, UniProt Q9Y2K2).
T2 construct: purchased SignalChem S12-11G-100
T2 sequence (Q9Y2K2 whole entry): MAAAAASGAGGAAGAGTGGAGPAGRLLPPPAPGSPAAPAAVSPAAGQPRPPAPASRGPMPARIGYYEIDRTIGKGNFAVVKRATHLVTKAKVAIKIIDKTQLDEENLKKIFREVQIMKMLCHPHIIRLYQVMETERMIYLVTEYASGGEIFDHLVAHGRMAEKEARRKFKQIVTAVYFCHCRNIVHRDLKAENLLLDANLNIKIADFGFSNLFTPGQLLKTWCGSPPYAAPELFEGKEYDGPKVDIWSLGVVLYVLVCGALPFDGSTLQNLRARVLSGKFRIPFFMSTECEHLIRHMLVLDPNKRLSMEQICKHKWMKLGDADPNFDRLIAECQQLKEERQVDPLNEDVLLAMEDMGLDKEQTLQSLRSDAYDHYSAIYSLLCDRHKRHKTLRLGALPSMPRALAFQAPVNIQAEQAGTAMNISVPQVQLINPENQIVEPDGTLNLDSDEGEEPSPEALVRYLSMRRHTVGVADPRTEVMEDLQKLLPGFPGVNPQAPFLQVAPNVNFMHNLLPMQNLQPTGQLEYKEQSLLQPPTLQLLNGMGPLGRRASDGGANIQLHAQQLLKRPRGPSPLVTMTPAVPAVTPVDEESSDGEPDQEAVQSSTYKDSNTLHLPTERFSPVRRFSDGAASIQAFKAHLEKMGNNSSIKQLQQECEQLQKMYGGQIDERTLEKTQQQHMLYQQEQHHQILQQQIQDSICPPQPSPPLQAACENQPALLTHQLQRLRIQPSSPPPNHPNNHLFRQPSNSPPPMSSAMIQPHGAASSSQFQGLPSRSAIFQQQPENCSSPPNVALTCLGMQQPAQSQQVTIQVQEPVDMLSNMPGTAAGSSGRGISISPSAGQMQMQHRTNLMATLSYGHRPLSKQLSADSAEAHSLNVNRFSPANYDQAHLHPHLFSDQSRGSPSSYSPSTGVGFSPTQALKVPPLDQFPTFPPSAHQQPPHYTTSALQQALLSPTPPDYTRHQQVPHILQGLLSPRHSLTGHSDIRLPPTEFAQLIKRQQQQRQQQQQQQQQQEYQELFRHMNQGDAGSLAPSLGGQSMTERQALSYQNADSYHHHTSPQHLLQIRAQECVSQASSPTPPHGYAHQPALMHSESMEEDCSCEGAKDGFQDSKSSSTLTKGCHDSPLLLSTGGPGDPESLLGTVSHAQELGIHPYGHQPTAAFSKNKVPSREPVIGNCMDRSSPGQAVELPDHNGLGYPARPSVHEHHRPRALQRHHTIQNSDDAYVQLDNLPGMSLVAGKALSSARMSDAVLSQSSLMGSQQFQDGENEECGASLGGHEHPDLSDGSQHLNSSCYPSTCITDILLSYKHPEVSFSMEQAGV
Put plainly: ADP-Glo kinase assay, SIK3. It is filed as biochemical. The conditions noted are these: ADP-Glo SIK kinase assay. An outline of the steps:
(§9)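 ADP-Glo luminescent assay of ADP formed by SIK2 or SIK3 with substrate after ATP addition, 120 min at RT. Remaining ATP depleted 40 min, then ADP converted to ATP and read by luciferase luminescence after 30 min. Controls: 1% DMSO and 10 μM staurosporine (final).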
Background: ADP-Glo turns the ADP formed in a reaction into a luminescent signal.

Another experiment has as its target T3, SIK2 (Homo sapiens, UniProt Q9H0K1).
T3 construct: purchased ThermoFisher Scientific PV4792
Description: ADP-Glo kinase assay, SIK2. In kind it is biochemical. The conditions noted are these: ADP-Glo SIK kinase assay. An outline of the steps: as §9

In experiment [2] the test system is LPS triggered IL-10 secretion in monocytes. Put plainly: Monocytes assay: LPS-triggered IL-10 (ELISA). The conditions noted are these: LPS 200 ng/mL, supernatant after 4 h, maximal fold change vs LPS only. In kind it is cell-based, human. On the procedure: as §1, §2, §3, §4, §5, §6, §7, §8
A Lumitrac 600 Greiner 384-well plate is coated with 40 μL of capture antibody (final concentration of 1 μg/mL in 1×PBS) and stored overnight at 4° C. The next day the plate is washed three times with PBST (PBS+0.05% Tween20) and once with PBS followed by the addition of 100 μL of blocking buffer (1% BSA−5% Sucrose) and plates are sealed and incubated for at least 4 h at RT. After washing the plate once with PBST and once with PBS, 40 μL of standard or sample are added (IL-10 standard curve is prepared using a 1/2 serial dilution starting from […]; dilutions are made in dilution buffer (PBS+1% BSA)). Plates are washed twice with PBST, and once with PBS, after which 35 μL of the detection antibody is added (final concentration 0.143 μg/mL diluted in dilution buffer) and plates are incubated for at least 2 h at RT. […]

pEC50, pIC50: −log10 of the molar value.

T1 sequence (P57059 whole entry): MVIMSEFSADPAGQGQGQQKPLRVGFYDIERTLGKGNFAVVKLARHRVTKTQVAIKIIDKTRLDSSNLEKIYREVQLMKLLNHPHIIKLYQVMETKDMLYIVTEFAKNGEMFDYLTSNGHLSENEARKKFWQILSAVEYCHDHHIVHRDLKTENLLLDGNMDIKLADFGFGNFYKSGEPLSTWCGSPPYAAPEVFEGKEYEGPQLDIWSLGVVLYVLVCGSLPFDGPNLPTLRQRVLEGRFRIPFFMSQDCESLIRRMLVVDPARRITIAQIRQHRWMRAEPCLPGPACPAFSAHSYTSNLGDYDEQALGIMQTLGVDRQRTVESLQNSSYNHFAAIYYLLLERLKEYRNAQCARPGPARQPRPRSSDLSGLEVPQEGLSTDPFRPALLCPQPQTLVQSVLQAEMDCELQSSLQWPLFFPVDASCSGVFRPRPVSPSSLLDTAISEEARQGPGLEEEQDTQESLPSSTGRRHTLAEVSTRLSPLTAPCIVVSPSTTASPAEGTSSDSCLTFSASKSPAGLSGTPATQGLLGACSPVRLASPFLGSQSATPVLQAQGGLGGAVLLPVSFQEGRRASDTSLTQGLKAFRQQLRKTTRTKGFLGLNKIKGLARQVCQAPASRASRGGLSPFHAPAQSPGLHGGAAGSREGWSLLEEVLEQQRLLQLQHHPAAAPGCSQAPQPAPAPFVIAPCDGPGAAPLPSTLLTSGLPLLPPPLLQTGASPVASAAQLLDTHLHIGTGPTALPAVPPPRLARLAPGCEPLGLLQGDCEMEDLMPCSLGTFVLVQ
T3 sequence (Q9H0K1 whole entry): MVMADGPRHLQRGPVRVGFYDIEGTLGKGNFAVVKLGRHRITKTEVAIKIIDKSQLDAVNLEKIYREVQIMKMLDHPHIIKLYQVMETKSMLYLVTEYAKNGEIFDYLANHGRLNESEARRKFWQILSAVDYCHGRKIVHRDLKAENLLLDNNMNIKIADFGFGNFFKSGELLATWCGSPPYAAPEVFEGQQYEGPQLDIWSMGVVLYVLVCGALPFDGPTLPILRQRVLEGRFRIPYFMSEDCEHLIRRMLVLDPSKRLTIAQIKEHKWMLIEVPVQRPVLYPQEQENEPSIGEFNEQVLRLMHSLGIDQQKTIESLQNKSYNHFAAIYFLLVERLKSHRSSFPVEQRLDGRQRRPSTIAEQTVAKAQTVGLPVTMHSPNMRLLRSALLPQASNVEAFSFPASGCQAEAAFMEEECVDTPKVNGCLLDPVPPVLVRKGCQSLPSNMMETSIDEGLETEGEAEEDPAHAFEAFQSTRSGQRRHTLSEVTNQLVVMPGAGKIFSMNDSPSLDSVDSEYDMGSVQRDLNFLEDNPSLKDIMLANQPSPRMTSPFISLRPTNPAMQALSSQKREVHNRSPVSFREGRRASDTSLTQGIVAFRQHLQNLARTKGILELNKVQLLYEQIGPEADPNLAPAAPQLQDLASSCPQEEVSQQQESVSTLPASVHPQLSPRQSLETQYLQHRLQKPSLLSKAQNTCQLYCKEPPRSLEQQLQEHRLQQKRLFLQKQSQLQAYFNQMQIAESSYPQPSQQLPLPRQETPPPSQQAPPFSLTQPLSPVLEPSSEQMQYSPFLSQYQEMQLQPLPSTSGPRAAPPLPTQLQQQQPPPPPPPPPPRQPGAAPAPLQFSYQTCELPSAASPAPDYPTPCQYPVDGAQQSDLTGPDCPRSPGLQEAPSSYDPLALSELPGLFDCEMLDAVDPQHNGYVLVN

On to `COc1cc(-c2cnc3cc(OCCCN4CCC45CCC5)ccn23)cc(OC(F)F)c1C(=O)NC1CC1` [compound 302, 4-[7-[3-(1-azaspiro[3.3]heptan-1-yl)propoxy]imidazo[1,2-a]pyridin-3-yl]-N-cyclopropyl-2-(difluoromethoxy)-6-methoxy-benzamide], for which the figures for the pIC50 against SIK1, against SIK3 and against SIK2 were 7.00 to 8.00, 8.00 to 11.00 and 8.00 to 11.00, respectively. This compound also showed a pEC50 in experiment [1] (4 h) of 7.00 to 10.00. For the same compound, the “IL-10 FCmax median” value in experiment [2] was “+++ (>4.5)”.

As to `CCOC(=O)C1(C)CCN(CC(O)COc2ccn3c(-c4cc(OC)c(C(=O)NC5CC5)c(OC(F)F)c4)cnc3c2)CC1` (stereo not shown) [compound 382, ethyl 1-[3-[3-[4-(cyclopropylcarbamoyl)-3-(difluoromethoxy)-5-methoxy-phenyl]imidazo[1,2-a]pyridin-7-yl]oxy-2-hydroxy-propyl]-4-methyl-piperidine-4-carboxylate], the pIC50 was 7.00 to 8.00 at SIK1, 8.00 to 11.00 on SIK3 and 8.00 to 11.00 against SIK2. In experiment [1] (4 h), this compound gave a pEC50 of 7.00 to 10.00. In experiment [2], the “IL-10 FCmax median” value is “++ (>1.5-4.5)”.

`COc1cc(-c2cnc3cc(OCCCN4CCC(F)(C(=O)O)CC4)ccn23)cc(OC(F)F)c1C(=O)NC1CC1` [Cpd 366, 1-[3-[3-[4-(cyclopropylcarbamoyl)-3-(difluoromethoxy)-5-methoxy-phenyl]imidazo[1,2-a]pyridin-7-yl]oxypropyl]-4-fluoro-piperidine-4-carboxylic acid]: the results for the pIC50 against SIK1, against SIK3 and against SIK2 were 7.00 to 8.00, 8.00 to 11.00 and 8.00 to 11.00, respectively. This compound also showed a pEC50 in experiment [1] (4 h) of 5.30 to 6.00. In addition, in experiment [2], the “IL-10 FCmax median” value is on record as “++ (>1.5-4.5)”.

Turning to `COc1cc(-c2cnc3cc(OCCC4CCCN4C4COC4)ccn23)cc(OC(F)F)c1C(=O)NC1CC1` (stereo not shown) [compound 299, N-cyclopropyl-2-(difluoromethoxy)-6-methoxy-4-[7-[2-[1-(oxetan-3-yl)pyrrolidin-2-yl]ethoxy]imidazo[1,2-a]pyridin-3-yl]benzamide], the pIC50 against SIK1 is 7.00 to 8.00; on SIK3, 8.00 to 11.00; on SIK2, 8.00 to 11.00. The compound also gave a pEC50 in experiment [1] (4 h) of 7.00 to 10.00. Further, the “IL-10 FCmax median” value in experiment [2] is recorded as “+++ (>4.5)”.

As to `COc1cc(-c2cnc3cc(OC[C@@H]4CCCNC4)ccn23)cc(OC(F)F)c1C(=O)NC1CC1` [Cpd 335, N-cyclopropyl-2-(difluoromethoxy)-6-methoxy-4-[7-[[(3R)-3-piperidyl]methoxy]imidazo[1,2-a]pyridin-3-yl]benzamide], the figures for the pIC50 on SIK1, against SIK3 and against SIK2 were 7.00 to 8.00, 8.00 to 11.00 and 8.00 to 11.00, respectively. The pEC50 in experiment [1] (4 h) was 6.00 to 7.00. Also, the “IL-10 FCmax median” value in experiment [2] is reported as “+++ (>4.5)”.

As for `COc1cc(-c2cnc3cc(OCCCN4CCS(=N)(=O)CC4)ccn23)cc(OC(F)F)c1C(=O)NC1CC1` [compound 327, N-cyclopropyl-2-(difluoromethoxy)-4-[7-[3-(1-imino-1-oxo-1,4-thiazinan-4-yl)propoxy]imidazo[1,2-a]pyridin-3-yl]-6-methoxy-benzamide], the negative-log IC50 (pIC50) is 7.00 to 8.00 at SIK1, 8.00 to 11.00 at SIK3 and 8.00 to 11.00 against SIK2. Besides, the pEC50 in experiment [1] (4 h) was 6.00 to 7.00. The “IL-10 FCmax median” value in experiment [2] is given as “+++ (>4.5)”.

On to `COc1cc(-c2cnc3cc(OCCCN4CCC5(COC5)C4)ccn23)cc(OC(F)F)c1C(=O)NC1CC1` [compound 285, N-cyclopropyl-2-(difluoromethoxy)-6-methoxy-4-[7-[3-(2-oxa-7-azaspiro[3.4]octan-7-yl)propoxy]imidazo[1,2-a]pyridin-3-yl]benzamide], for which the results for the negative-log IC50 (pIC50) at SIK1, on SIK3 and on SIK2 were 7.00 to 8.00, 8.00 to 11.00 and 8.00 to 11.00, respectively. This compound had a pEC50 in experiment [1] (4 h) of 6.00 to 7.00. The “IL-10 FCmax median” value in experiment [2] is “+++ (>4.5)”.

On to `COc1cc(-c2cnc3cc(OCCCN4C(C)CCCC4C)ccn23)cc(OC(F)F)c1C(=O)NC1CC1` (stereo not shown) [compound 290, N-cyclopropyl-2-(difluoromethoxy)-4-[7-[3-(2,6-dimethyl-1-piperidyl)propoxy]imidazo [1,2-a]pyridin-3-yl]-6-methoxy-benzamide], for which the pIC50 was 7.00 to 8.00 on SIK1, 8.00 to 11.00 against SIK3 and 8.00 to 11.00 on SIK2. This compound also gave a negative logarithm of the EC50 (pEC50) in experiment [1] (4 h) of 7.00 to 10.00. Also, in experiment [2], the “IL-10 FCmax median” value was “+++ (>4.5)”.

Turning to `COC(=O)[C@@H]1CN(CC(O)COc2ccn3c(-c4cc(OC)c(C(=O)NC5CC5)c(OC(F)F)c4)cnc3c2)CCO1` (stereo partly drawn) [compound 388, methyl (2S)-4-[3-[3-[4-(cyclopropylcarbamoyl)-3-(difluoromethoxy)-5-methoxy-phenyl]imidazo[1,2-a]pyridin-7-yl]oxy-2-hydroxy-propyl]morpholine-2-carboxylate], the results for the pIC50 on SIK1, against SIK3 and on SIK2 were 7.00 to 8.00, 8.00 to 11.00 and 8.00 to 11.00, respectively. Besides, in experiment [1] (4 h), the pEC50 was 6.00 to 7.00. The “IL-10 FCmax median” value in experiment [2] is reported as “+++ (>4.5)”.

Consider `COc1cc(-c2cnc3cc(OC4C[C@H]5CC[C@@H](C4)N5)ccn23)cc(OC(F)F)c1C(=O)NC1CC1.Cl` (stereo partly drawn) [Cpd 270, 4-[7-[[(1R,5S)-8-azabicyclo[3.2.1]octan-3-yl]oxy]imidazo[1,2-a]pyridin-3-yl]-N-cyclopropyl-2-(difluoromethoxy)-6-methoxy-benzamide hydrochloride salt], for which the pIC50 was 6.30 to 7.00 on SIK1, 8.00 to 11.00 against SIK3 and 7.00 to 8.00 against SIK2. This compound gave a pEC50 in experiment [1] of 5.30 to 6.00. Also, the “IL-10 FCmax median” value in experiment [2] is “++ (>1.5-4.5)”.

As to `COc1cc(-c2cnc3cc(OCCCN4C5CCC4COC5)ccn23)cc(OC(F)F)c1C(=O)NC1CC1` [compound 292, N-cyclopropyl-2-(difluoromethoxy)-6-methoxy-4-[7-[3-(3-oxa-8-azabicyclo[3.2.1]octan-8-yl)propoxy]imidazo[1,2-a]pyridin-3-yl]benzamide], the results for the pIC50 on SIK1, against SIK3 and against SIK2 were 7.00 to 8.00, 8.00 to 11.00 and 8.00 to 11.00, respectively. Further, in experiment [1], the negative-log EC50 (pEC50) was 7.00 to 10.00. In addition, in experiment [2], the “IL-10 FCmax median” value is reported as “+++ (>4.5)”.

As usually defined, the pIC50 is −log10 of the IC50, conventionally taken in molar units. High values mean a low IC50, low ones a high IC50. As usually defined, the pEC50 is −log10 of the EC50, conventionally taken in molar units. Read a high pEC50 as a low EC50.
